# Laboratory results taken from US20140005255A1, “Agonists Of Toll Like Receptor For Treating Cardiovasuclar Disease And Obesity” (priority 2010, published 2014).
# What was measured:
# TLR8 = conditions: cited from earlier work
# [1] = system: mixed human atheroma cell culture; assay: IFNα production (ELISA) in mixed cell type atheroma cell culture; format: cell-based; conditions: 1 μM, 24 hours
# Description: Carotid endarterectomies from patients undergoing surgery for carotid disease were obtained at Charing Cross Hospital, London. The protocol was approved by the Research Ethics Committee RREC2989. All patients gave written informed consent, according to the Human Tissue Act 2004 (UK). Single cell suspensions of mixed cell types were obtained via enzymatic digestion and cultured for 24 hours as previously described (18).
# SMC were cultured in 50 cm^2 tissue culture dishes and grown until near confluence. AthSMC and AoSMC were serum starved for 24 hours and then cultured in DMEM either alone or in the presence of 10 ng/ml IL1a, 100 ng/ml Pam3Cys, 100 ng/ml FSL-1 (Pam2CGDPKHPKSF), 25 μg/ml Poly(I:C), 100 ng/ml Lipopolysaccharide (LPS), 1 μg/ml R837 (Imiquimod) and 1 μg/ml PolyU (all purchased from Invivogen). […] The concentrations used were selected on the basis of dose-response experiments as the dose with maximal effect in absence of cell death monitored via MTT.
# (§1) Cytokine production in supernatants of AthSMC and AoSMC were measured by ELISA using IL-6, IL-8 and CCL2/MCP-1 (Pharmingen, UK). IFNα was detected via a high sensitivity ELISA kit from R&D Systems. Each condition was tested in triplicate and each triplicate was analyzed separately. Concomitantly, viability was monitored with the use of 3-(4,5-dimethyl[…])-2,5-diphenyltetrazolium (MTT) (Sigma, UK).
# [2] = system: human atheroma-derived smooth muscle cells (AthSMC); assay: Cytokine production (ELISA) by SMC stimulated with TLR agonists for 24 hours, AthSMC compared to AoSMC; format: cell-based; conditions: 24 hours stimulation
# Description: AthSMC were isolated from the mixed atheroma cells via magnetic cell sorting (Miltenyi, MACS), utilizing anti-CD45 (pan-leukocyte marker) and anti-CD31 (endothelial cells) antibodies coupled to microbeads. SMC expressing SMC-alpha actin composed >90% of the cells. Control AoSMC were purchased from Promocell (Germany). Both SMC types were grown in SMC medium (Promocell, Germany) and used at passage 3 consistently in all experiments. The protocols of stimulation with TLR ligands are described below.
# SMC were cultured in 50 cm^2 tissue culture dishes and grown until near confluence. AthSMC and AoSMC were serum starved for 24 hours and then cultured in DMEM either alone or in the presence of 10 ng/ml IL1a, 100 ng/ml Pam3Cys, 100 ng/ml FSL-1 (Pam2CGDPKHPKSF), 25 μg/ml Poly(I:C), 100 ng/ml Lipopolysaccharide (LPS), 1 μg/ml R837 (Imiquimod) and 1 μg/ml PolyU (all purchased from Invivogen). Cells were serum starved for 24 h prior to stimulation with the indicated agonists. Supernatants were collected 24 hours after stimulation and frozen at −80° C. for batch analysis via ELISA. In the experiments performed on the mixed human atheroma cell culture, cells were cultured immediately after isolation at 10^6 cells per milliliter in RPMI containing 5% fetal bovine serum (Biosera, UK) in the presence or absence of 25 μg/ml Poly(I:C), 1 μM CpG ODN2006 and 1 μM CpG ODN2006 control (Invivogen) for 24 and 48 hours. The concentrations used were selected on the basis of dose-response experiments as the dose with maximal effect in absence of cell death monitored via MTT.
# as §1
# AthSMC and AoSMC [3] = assay: TLR3 gene expression by Q-PCR in stimulated SMC; format: cell-based, human; conditions: 5 hours
# Description: Alternatively, AoSMc and AthSMC were stimulated with 25 μg/ml Poly(I:C) or interferon α (IFN α) at 10 ng/mL or IFNy at 10 ng/mL. Total RNA was extracted as before and TLR3 gene expression was quantified via Q-PCR with TaqMan® Gene Expression Assays (Hs01551078_m1*; Applied Biosystems Inc.).
# C57BL/6 and TLR3−/− mice = assay: Perivascular collar injury: neointima formation (intima/media ratio); format: in vivo
# Description: (§2) At 22 weeks of age, male C57BL/6 and TLR3^−/− mice were anesthetized with isofluorane by inhalation, the left carotid artery dissected and a non-occlusive tygon collar (length 2.5 mm; internal bore diameter, 510 μm, Cole-Parmer, London, UK) placed around the carotid artery. Mice received 250 μg Poly(I:C) (Sigma, Dorset, UK) or PBS intraperitoneally on alternate days for a total of 8 doses starting 4 days after surgery. Twenty-one days following collar placement, mice were euthanized, and neointima development and the presence of elastic lamina breaks were assessed as described below.
# […] following collar placement, mice were euthanized, terminal blood collected via cardiac puncture and the vasculature perfused with 0.9% saline. Injured carotids were dissected out and frozen at −80° C. in Optimal cutting temperature (OCT) compound (ThermoScientific, Runcorn, UK). Sham-operated contralateral arteries were used as controls. Mice were fed regular chow throughout the duration of the experiment.
# For the injured carotid artery, serial 5 μm cryosections were taken of the carotid tissue distal to the collar. Five sections were collected on each slide and 15 to 25 slides were collected per arterial segment. The first five alternate slides were stained with Accustain elastic stain kit (Sigma) according to manufacturer's instructions. Measurement of lesion and vessel areas was performed on one section per stained slide using ProgRes CapturePro image analysis software (version 2.5.2.0, Jenoptik, Germany). The area between the internal and external elastic […] was taken as the medial area and the intimal area was calculated by subtracting the lumen area from the internal elastic lamina area. The intimal medial ratio (IMR) was then calculated by dividing the intimal area by the medial area. The IMR measurements were then averaged for each mouse.
# [4] = system: C57BL/6, ApoE−/− and TLR3−/− mice; assay: Vascular gene expression (quantitative RT-PCR) 24 hours after a single i.p. dose of Poly(I:C); format: in vivo
# Description: FIG. 2 Aortic gene expression of both pro- and anti-inflammatory factors is induced by Poly(I:C) stimulation. 10- and 30-week old C57BL/6, ApoE−/− and TLR3−/− mice were stimulated with PBS or 250 μg Poly(I:C) in PBS. 24 hours post-stimulation, mice were sacrificed, aortas harvested and RNA extracted. Gene expression of CCL5 (A), IL-10 (B), VCAM-1 (C) and IFNβ (D) was examined by quantitative RT-PCR. Bars show overall mean±SEM (n=3-5 mice per group; *p<0.05, **p<0.01, ***p<0.001 PBS v. Poly(I:C); unpaired student's t-test).
# (§3) Total RNA was isolated from murine tissues using the Qiagen RNeasy kit (Qiagen, Crawley, UK) according to the manufacturer's instructions. Total RNA was treated with DNase I and reverse-transcribed to cDNA using M-MLV Reverse Transcriptase RNase H-, Point Mutant (Promega, UK) and oligo(dT) primer. RT-PCR was performed using TaqMan Gene Expression Assays (CCL5 (Mm01302427_m1), VCAM1 (Mm01320970_m1), CCL2 (Mm00441242_m1), TLR3 (Mm01207403_m1), IL-10 (Mm01288386_m1), PD-L1 (Mm00452054_m1*), PD-L2 (Mm00451734_m1*) IFNβ (Mm00439552_s1*), (Applied Biosystems) and TaqMan universal PCR Master Mix (Applied Biosystems) on a 7900HT Fast Real-Time PCR System (Applied BioSystems). PCR amplification was carried out for 40 cycles. Samples were normalized to β-actin. The 2-ΔΔCt method was used to analyze the relative changes in gene expression.
# AthSMC and AoSMC [5] = assay: Atherosclerosis RT2 Profiler PCR Array gene expression in SMC stimulated with Poly(I:C) for 5 hours; format: cell-based, human; conditions: 25 μg/ml
# Description: SMCs were plated in 9.6 cm^2 dishes and grown until near confluence. SMCs were serum starved for 24 h prior to stimulation with 25 μg/ml Poly(I:C) for 5 hours. Total cellular RNA was extracted from SMC using RNeasy® Mini Kit (Qiagen) according to the manufacturer's instructions. To remove any residual genomic DNA, RNA samples were treated with DNase (TurboDNase, Ambion) according to manufacturer's instructions. RNA was reverse transcribed to cDNA using M-MLV Reverse Transcriptase (Promega, UK). Quantitative PCR (QPCR) analysis of 84 atherosclerosis related genes was performed using Atherosclerosis RT2 Profiler PCR Arrays (SA Bioscience Corporation, USA) as per the manufacturer's protocol. The complete list of the genes analyzed is available online at http://www.sabiosciences.com/rt_per_product/HTML/PAHS-038A.html. RT2 Profiler PCR arrays were run on an ABI 7900HT machine (Applied Biosystems). Duplicate arrays were run per condition for unstimulated and Poly (I:C)-stimulated AoSMC and AthSMC. Data analysis was performed using the manufacturer's integrated web-based software package for the PCR Array System using Ct based fold-change calculations.
# TLR3−/− mice = assay: Perivascular collar injury: elastic lamina breaks; format: in vivo; conditions: systemic administration 250 μg i.p.
# Description: as §2
# Elastin-stained slides were also used to assess the integrity of the elastic laminae. The portion of the carotid artery distal to the collar (the same as used for neointima assessment) was divided into 5 segments and representative sections from each segment were evaluated for the presence of interruptions in the elastic lamina. The width of any observed break was measured by drawing a line between the start and end of a break in the external elastic lamina using ProgRes CapturePro image analysis software (version 2.5.2.0, Jenoptik). The width of any elastic lamina break was calculated as the mean width of break across all sections examined for each mouse. […]
# C57BL/6 mice = assay: Gene expression in aortas and lymphoid tissues after chronic Poly(I:C) stimulation for 3 weeks; format: in vivo; conditions: chronic stimulation 3 weeks
# Source text: FIG. 10 Gene expression of anti-inflammatory factors is increased in aortas and lymphoid tissues in C57BL/6 mice treated with Poly(I:C) Aortas, spleens and para-aortic lymph nodes (PALN) of C57BL/6 mice that underwent carotid artery injury and PBS or Poly(I:C) treatment were collected at sacrifice. RNA was extracted and gene expression of CCL5, IFNβ, PD-L1, PD-L2, and IL-10 in the aorta (A), spleen (B) and PALN(C) was examined by RT-PCR. Bars show overall mean±SEM (n=4 mice per group, *p<0.05, **p<0.01 PBS v. Poly(I:C); unpaired student's t-test). Abbreviations: IFNβ: Interferon beta, IL-10: Interleukin-10, PD-L1: programmed death-ligand 1, PD-L2: programmed death-ligand 2.
# as §2, §3
# [6] = Poly(I:C) 25 μg/ml, FSL-1 100 ng/ml
# [7] = single dose 250 μg i.p., 24 hours
compound,measurement,setting,value
CCCc1nc2c(N)nc3ccccc3c2s1 [CL075],Agonist strength for TLR8 relative to TLR7,TLR8,~10 ×
CCCCNc1nc(N)c2[nH]c(=O)n(Cc3ccc(C(=O)NCC(=O)O)cc3)c2n1 [CL264],TLR8 activation / stimulation,TLR8; CL264: even at high concentrations (>10 mg/ml),does not stimulate TLR8
CpG ODN2006,IFNα production,[1],Type I interferons are produced in the mixed cell culture population in response to TLR9 stimulation
FSL-1,"IL-6 expression, AthSMC compared to AoSMC",[2]; [6],enhanced response
same,"IL-8 expression, AthSMC compared to AoSMC",[2]; [6],enhanced response
IFNα,TLR3 gene expression,"AthSMC and AoSMC [3]; AoSMC and AthSMC, IFN 10 ng/mL",able to increase the expression of TLR3
Polyriboinosinic-polycytidylic acid [Poly(I:C)],"Neointima formation, intima/media ratio, compared to vehicle","C57BL/6 and TLR3−/− mice; C57BL/6 mice, 250 μg i.p., 21 days after injury, p<0.001",significantly reduced
same,Protection against neointima formation,"C57BL/6 and TLR3−/− mice; TLR3−/− mice, 250 μg i.p., p>0.05",ablated
same,End-weight of mice,"C57BL/6 and TLR3−/− mice; all groups, Poly(I:C) or vehicle",No difference
same,Gene induction in aorta of ApoE−/− mice with advanced disease compared to young ApoE−/−,[4]; 30-week vs 10-week old ApoE−/− mice,more pronounced
same,Gene induction in carotid artery tissue compared to aorta,"[4]; CCL5, CCL2, VCAM1, single dose 250 μg",even more marked
same,Expression of the induced genes in TLR3−/− mice,"[4]; TLR3−/− mice, single dose 250 μg",almost abrogated
same,A20 induction,"[4]; mice, single dose 250 μg i.p.",A20 induction was not observed
same,Aortic expression of CCL2/MCP-1,[4]; [7],induced the aortic expression
same,Aortic expression of CCL5/RANTES,[4]; [7],induced the aortic expression
same,Aortic expression of IFNβ,[4]; [7],induced the aortic expression
same,Aortic expression of IL-10,[4]; [7],induced the aortic expression
same,Aortic expression of PD-L2,[4]; [7],induced the aortic expression
same,Aortic expression of VCAM-1,[4]; [7],induced the aortic expression
same,"TLR3 gene expression in vascular tissues (aorta, carotid arteries)","[4]; single dose 250 μg, 24 hours",up-regulated TLR3 gene expression
same,TLR3 gene expression,"AthSMC and AoSMC [3]; AoSMC, 25 μg/ml",not in AoSMC
same,TLR3 gene expression,"AthSMC and AoSMC [3]; AthSMC, 25 μg/ml",able to upregulate the expression of TLR3
same,"Expression of selected genes of inflammatory cell recruitment (e.g. VCAM1, CCL5) and regulation of inflammation (e.g. A20, BIRC3/cIAP)",AthSMC and AoSMC [5],significantly increased the expression
same,"Elastic lamina breaks (frequency, depth and width)",TLR3−/− mice,"reduced the frequency, depth and width of the elastic lamina breaks"
same,"TLR3 dependent response in AthSMC compared to AoSMC (fold change in IL-6 production, FIG. 1B)",[2]; 25 μg/ml,over 40 fold
same,"CCL2/MCP-1 expression, AthSMC compared to AoSMC",[2]; [6],enhanced expression
same,"IL-6 expression, AthSMC compared to AoSMC",[2]; [6],enhanced expression
same,"IL-8 expression, AthSMC compared to AoSMC",[2]; [6],enhanced expression
same,Expression of CCL5 in the aorta,C57BL/6 mice,significantly increased
same,Expression of IFNβ in the aorta,C57BL/6 mice,significantly increased
same,Expression of IFNβ mRNA in the spleen,C57BL/6 mice,induced
same,Expression of IL10 in the aorta,C57BL/6 mice,significantly increased
same,Gene expression of PD-L1 in the para-aortic lymph nodes,C57BL/6 mice,induced
same,Gene expression of PD-L2 in the para-aortic lymph nodes,C57BL/6 mice,induced
